Test results published in the supplement of paper PMC10307832.

Experiments:
Test in all cases: relative viability (nuclei count vs DMSO), 5 days (fraction); higher = more cells survive
Imatinib + Vorinostat = compound: Cc1ccc(NC(=O)c2ccc(CN3CCN(C)CC3)cc2)cc1Nc1nccc(-c2cccnc2)n1 [Imatinib] + O=C(CCCCCCC(=O)Nc1ccccc1)NO [Vorinostat] (partner 1 µM)
How it was run: (§1)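 Nuclei were stained with Hoechst during a one-step fixation (final 0.05% Triton X-100, 1% formaldehyde, 1 ug/ml Hoechst) carried out 5 days after dosing, then counted on 4× images. The cells, lung cancer lines in 1536-well plates, had been dosed by pin tool the day after seeding with one drug alone or a fixed anchor-drug dose plus five library-drug doses (not always all listed) in √10 steps. Relative viability is the nuclei count in treated wells divided by that in vehicle wells, and each value is the median of duplicate plates.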

Imatinib + Crizotinib = compound: Cc1ccc(NC(=O)c2ccc(CN3CCN(C)CC3)cc2)cc1Nc1nccc(-c2cccnc2)n1 [Imatinib] + C[C@@H](Oc1cc(-c2cnn(C3CCNCC3)c2)cnc1N)c1c(Cl)ccc(F)c1Cl [Crizotinib] (partner 1 µM)
How it was run: as §1

Imatinib + Palbociclib = compound: Cc1ccc(NC(=O)c2ccc(CN3CCN(C)CC3)cc2)cc1Nc1nccc(-c2cccnc2)n1 [Imatinib] + CC(=O)c1c(C)c2cnc(Nc3ccc(N4CCNCC4)cn3)nc2n(C2CCCC2)c1=O [Palbociclib] (partner 0.5 µM)
How it was run: as §1

Imatinib + Navitoclax = compound: Cc1ccc(NC(=O)c2ccc(CN3CCN(C)CC3)cc2)cc1Nc1nccc(-c2cccnc2)n1 [Imatinib] + CC1(C)CCC(c2ccc(Cl)cc2)=C(CN2CCN(c3ccc(C(=O)NS(=O)(=O)c4ccc(N[C@H](CCN5CCOCC5)CSc5ccccc5)c(S(=O)(=O)C(F)(F)F)c4)cc3)CC2)C1 [Navitoclax] (partner 0.5 µM)
How it was run: as §1

Row | Cell Line | relative viability (Imatinib + Vorinostat; first compound 0.02 µM) | relative viability (Imatinib + Vorinostat; first compound 0.06325 µM) | relative viability (Imatinib + Vorinostat; first compound 0.6325 µM) | relative viability (Imatinib + Vorinostat; first compound 2 µM) | relative viability (Imatinib + Crizotinib; first compound 0.02 µM) | relative viability (Imatinib + Crizotinib; first compound 0.06325 µM) | relative viability (Imatinib + Crizotinib; first compound 0.2 µM) | relative viability (Imatinib + Crizotinib; first compound 0.6325 µM) | relative viability (Imatinib + Crizotinib; first compound 2 µM) | relative viability (Imatinib + Palbociclib; first compound 0.02 µM) | relative viability (Imatinib + Palbociclib; first compound 0.06325 µM) | relative viability (Imatinib + Palbociclib; first compound 0.2 µM) | relative viability (Imatinib + Palbociclib; first compound 0.6325 µM) | relative viability (Imatinib + Palbociclib; first compound 2 µM) | relative viability (Imatinib + Navitoclax; first compound 0.02 µM) | relative viability (Imatinib + Navitoclax; first compound 0.06325 µM) | relative viability (Imatinib + Navitoclax; first compound 0.2 µM) | relative viability (Imatinib + Navitoclax; first compound 0.6325 µM) | relative viability (Imatinib + Navitoclax; first compound 2 µM) | relative viability (Imatinib + Vorinostat; first compound 0.2 µM)
1 | RERF-LC-KJ | 0.698 | 0.535 | 0.662 | 0.683 | 0.867 | 0.885 | 0.51 | 0.855 | 0.826 | 1.11 | 1.23 | 1.07 | 0.981 | 1.09 | 1.09 | 0.999 | 1 | 0.83 | 0.954 | 
2 | NCI-H520 | 0.7 |  | 0.922 | 0.729 | 0.764 | 0.978 | 0.874 | 0.963 | 0.647 | 0.25 | 0.21 | 0.198 | 0.242 | 0.213 | 1.24 | 1.14 | 1.18 | 1.04 | 1.12 | 0.662
3 | HCC-44 | 1.12 |  | 1.14 | 1.04 | 0.921 | 0.841 | 0.911 | 0.841 | 0.712 | 0.976 |  | 1.1 |  | 0.885 | 1.11 | 1.05 | 1.03 | 0.858 | 0.866 | 1.14
4 | LK-2 | 0.323 | 0.246 |  | 0.159 | 0.213 |  | 0.224 | 0.236 | 0.179 | 0.757 | 0.726 |  |  | 0.662 | 0.975 | 0.685 | 0.848 |  | 0.84 | 0.286
5 | NCI-H1734 | 0.92 |  | 0.856 | 0.717 | 0.674 |  | 0.891 | 0.642 |  | 0.348 |  | 0.402 | 0.346 | 0.351 | 0.938 |  | 1.11 | 0.758 |  | 0.832
6 | NCI-H2126 | 0.702 | 0.582 | 0.724 | 0.818 | 1.04 |  | 1.05 | 1 | 0.984 | 0.375 | 0.352 | 0.37 | 0.368 | 0.321 | 0.883 |  | 0.865 | 0.851 | 0.824 | 0.789
7 | NCI-H1944 | 0.605 | 0.573 | 0.512 | 0.439 | 1.24 |  |  | 0.935 |  | 0.347 | 0.306 | 0.373 | 0.316 | 0.42 | 1.03 |  | 1.05 | 1.07 | 1.08 | 0.536
8 | ChaGo-K-1 | 0.804 |  | 0.761 | 0.697 | 1.12 | 1.35 | 1.31 | 0.976 | 1.05 | 0.988 |  | 0.982 | 0.871 | 0.879 | 1.04 | 0.927 |  | 1.37 | 1.09 | 0.79
9 | HOP-62 | 0.884 |  | 0.562 | 0.68 | 0.87 |  | 0.984 | 1.06 | 1 | 0.503 |  | 0.516 | 0.408 | 0.398 | 0.983 |  | 1.36 | 1.04 | 0.517 | 0.83
10 | HCC-15 | 0.857 |  | 0.854 | 0.765 | 0.683 | 0.779 | 0.9 | 0.792 | 0.817 | 0.496 |  | 0.822 | 0.778 | 0.713 | 0.736 | 0.522 | 0.764 | 0.722 | 0.709 | 0.917
11 | NCI-H1755 | 0.875 | 0.835 | 0.742 | 0.653 | 1.08 | 1.12 | 1.06 | 0.808 | 0.794 | 0.438 | 0.496 | 0.436 | 0.429 | 0.423 | 1.02 | 1.06 | 1.12 | 0.988 | 1.04 | 0.649
12 | NCI-H322M | 0.889 | 0.873 | 0.775 | 0.876 | 0.966 | 1.1 |  | 0.836 |  | 0.474 | 0.518 | 0.501 | 0.423 | 0.495 | 1.21 | 1.26 |  | 1.17 | 1.13 | 0.928
13 | NCI-H2009 | 0.805 | 0.646 | 0.794 | 0.758 | 1.09 | 1.23 | 0.975 | 1.02 | 1.04 | 0.202 | 0.157 | 0.194 | 0.2 | 0.203 | 1.22 | 1.22 | 1.23 | 1.17 | 1.11 | 0.554
14 | NCI-H1437 | 0.934 | 0.81 | 0.998 | 0.786 | 1.02 | 1.15 | 1.1 | 1.07 | 0.878 | 0.329 | 0.288 | 0.324 | 0.343 | 0.266 | 1.24 | 1.17 | 1.34 | 1.08 | 1.04 | 0.883
15 | NCI-H2023 | 0.846 | 0.376 |  | 0.614 | 0.61 | 0.708 | 0.715 | 0.616 | 0.706 | 0.537 | 0.494 | 0.387 |  | 0.345 | 1.08 | 1.23 | 1.12 | 0.958 | 0.898 | 0.615
16 | LCLC-97TM1 | 0.798 |  | 0.855 | 0.767 |  |  | 0.358 | 0.34 | 0.407 | 0.25 |  | 0.267 | 0.172 | 0.219 |  |  | 0.605 | 0.554 | 0.399 | 0.959
17 | NCI-H2347 | 0.568 |  | 0.552 | 0.569 | 0.675 | 0.674 | 0.729 | 0.647 | 0.797 | 0.498 |  | 0.425 | 0.424 | 0.405 | 0.792 | 0.675 | 0.688 | 0.823 | 0.859 | 0.585
18 | NCI-H1993 | 0.608 | 0.581 | 0.688 | 0.743 |  | 0.905 |  | 0.927 | 0.815 | 0.684 | 0.677 | 0.674 | 0.723 | 0.699 |  | 1 | 0.953 | 0.851 | 0.776 | 0.737
